{"source": "PubChem BioAssay AID330", "about": "(DTP/NCI, 2004)", "tested_on": "P388 leukemia ip, CD2F1 mice, survival T/C", "test": "NCI In Vivo Anticancer Drug Screen. Data for tumor model P388 Leukemia (intraperitoneal) in CD2F1 (CDF1) mice", "conditions": "endpoint: median survival time, higher = longer survival", "how_it_was_run": "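Mice carrying the transplanted tumor received test compound or vehicle. Survival was recorded in each group, and the value is the treated-group measurement divided by that of the vehicle-treated control group.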", "key": {"[1]": {"conditions": "dose: 50.0 mg/kg/injection, schedule: Q01DX005 (ip), vehicle: Klucel (hydroxypropylcellulose) (HPC)"}, "[2]": {"conditions": "dose: 100.0 mg/kg/injection, schedule: Q01DX005 (ip), vehicle: Klucel (hydroxypropylcellulose) (HPC)"}, "[3]": {"conditions": "dose: 60.0 mg/kg/injection, schedule: Q01DX005 (ip), vehicle: Klucel (hydroxypropylcellulose) (HPC)"}, "[4]": {"conditions": "dose: 120.0 mg/kg/injection, schedule: Q01DX005 (ip), vehicle: Klucel (hydroxypropylcellulose) (HPC)"}, "[5]": {"conditions": "dose: 240.0 mg/kg/injection, schedule: Q01DX005 (ip), vehicle: Klucel (hydroxypropylcellulose) (HPC)"}, "[6]": {"conditions": "dose: 60.0 mg/kg/injection, schedule: Q01DX005 (ip), vehicle: saline with Tween-80"}, "[7]": {"conditions": "dose: 120.0 mg/kg/injection, schedule: Q01DX005 (ip), vehicle: saline with Tween-80"}, "[8]": {"conditions": "dose: 240.0 mg/kg/injection, schedule: Q01DX005 (ip), vehicle: saline with Tween-80"}}, "note": "Where “and” joins values, the source holds several entries; their conditions need not be identical. Equal values may be shown once. Inconclusive results and toxic doses are left out.", "data": [{"smiles": "C=C(Br)C(=NC(C)(C)C)Nc1cccc(Cl)c1", "values": [{"measurement": "T/C", "setting": "[1]", "result": "102 % of control"}, {"measurement": "T/C", "setting": "[2]", "result": "107 % of control"}]}, {"smiles": "CCC1(O)C(=O)Nc2ccccc2C1=O", "note": "(configuration not stated)", "values": [{"measurement": "T/C", "setting": "[3]", "result": "98 % of control"}, {"measurement": "T/C", "setting": "[4]", "result": "88 % of control"}, {"measurement": "T/C", "setting": "[5]", "result": "98 % of control"}]}, {"smiles": "COc1ccc(Cl)c(C)c1C(=O)OC1CC(OC2C(O)CC(OC3CCCC4C3C=CC3CCCC/C=C/C5C=C(C(=O)O)C(C)CC56OC(=O)C(=C6O)OC(=O)C34C)OC2C)OC(C)C1O", "note": "(configuration not stated)", "values": [{"measurement": "T/C", "setting": "dose: 25.0 mg/kg/injection, schedule: Q01DX009 (ip), vehicle: Klucel (hydroxypropylcellulose) (HPC)", "result": "103 % of control"}, {"measurement": "T/C", "setting": "dose: 50.0 mg/kg/injection, schedule: Q01DX009 (ip), vehicle: Klucel (hydroxypropylcellulose) (HPC)", "result": "97 % of control"}, {"measurement": "T/C", "setting": "dose: 100.0 mg/kg/injection, schedule: Q01DX009 (ip), vehicle: Klucel (hydroxypropylcellulose) (HPC)", "result": "89 % of control"}]}, {"smiles": "CCCCCCCCCOCC(COP(=O)([O-])OCC[N+](C)(C)C)OC", "note": "(configuration not stated)", "values": [{"measurement": "T/C", "setting": "dose: 50.0 mg/kg/injection, schedule: Q01DX005 (ip), vehicle: saline", "result": "99 % of control"}, {"measurement": "T/C", "setting": "dose: 100.0 mg/kg/injection, schedule: Q01DX005 (ip), vehicle: saline", "result": "103 % of control"}]}, {"smiles": "O=C1c2c(O)cccc2C(C2OC(CO)C(O)C(O)C2O)c2cc(CO)cc(O)c21", "note": "(configuration not stated)", "values": [{"measurement": "T/C", "setting": "dose: 25.0 mg/kg/injection, schedule: Q01DX005 (ip), vehicle: Klucel (hydroxypropylcellulose) (HPC)", "result": "101 % of control"}, {"measurement": "T/C", "setting": "dose: 50.0 mg/kg/injection, schedule: Q01DX001 (ip), vehicle: water", "result": "104 % of control"}, {"measurement": "T/C", "setting": "[1]", "result": "104 % of control and 107 % of control"}, {"measurement": "T/C", "setting": "dose: 100.0 mg/kg/injection, schedule: Q01DX001 (ip), vehicle: water", "result": "104 % of control"}, {"measurement": "T/C", "setting": "[2]", "result": "117 % of control and 110 % of control"}, {"measurement": "T/C", "setting": "dose: 200.0 mg/kg/injection, schedule: Q01DX001 (ip), vehicle: water", "result": "104 % of control"}]}, {"smiles": "Fc1cccc(Cl)c1C(Nc1ncccn1)Nc1ncccn1", "values": [{"measurement": "T/C", "setting": "[3]", "result": "100 % of control"}, {"measurement": "T/C", "setting": "[4]", "result": "94 % of control"}, {"measurement": "T/C", "setting": "[5]", "result": "88 % of control"}]}, {"smiles": "CN(C)C1=CC(=O)NC(c2ccccc2)C1", "note": "(configuration not stated)", "values": [{"measurement": "T/C", "setting": "[1]", "result": "102 % of control"}, {"measurement": "T/C", "setting": "[2]", "result": "99 % of control"}, {"measurement": "T/C", "setting": "dose: 200.0 mg/kg/injection, schedule: Q01DX005 (ip), vehicle: Klucel (hydroxypropylcellulose) (HPC)", "result": "99 % of control"}]}, {"smiles": "CSc1nc2c(nnn2C2OC(CO)C(O)C(O)C2O)c(=O)[nH]1", "note": "(configuration not stated)", "values": [{"measurement": "T/C", "setting": "[6]", "result": "100 % of control"}, {"measurement": "T/C", "setting": "[7]", "result": "97 % of control"}, {"measurement": "T/C", "setting": "[8]", "result": "102 % of control"}]}, {"smiles": "CSc1nccc(=O)n1-c1ccc(C)cc1", "values": [{"measurement": "T/C", "setting": "dose: 100.0 mg/kg/injection, schedule: Q04DX002 (ip), vehicle: saline with Tween-80", "result": "102 % of control"}, {"measurement": "T/C", "setting": "dose: 200.0 mg/kg/injection, schedule: Q04DX002 (ip), vehicle: saline with Tween-80", "result": "102 % of control"}, {"measurement": "T/C", "setting": "dose: 400.0 mg/kg/injection, schedule: Q04DX002 (ip), vehicle: saline with Tween-80", "result": "98 % of control"}]}, {"smiles": "CC1(C)OC(C2SCCS2)C2OC(=O)C(O[Si](C)(C)C(C)(C)C)C2O1", "note": "(configuration not stated)", "values": [{"measurement": "T/C", "setting": "[6]", "result": "99 % of control"}, {"measurement": "T/C", "setting": "[7]", "result": "93 % of control"}, {"measurement": "T/C", "setting": "[8]", "result": "93 % of control"}]}, {"smiles": "CSC1=NC=C(C#N)C2=NC(c3cccs3)NN12", "note": "(configuration not stated)", "values": [{"measurement": "T/C", "setting": "[6]", "result": "118 % of control"}, {"measurement": "T/C", "setting": "[7]", "result": "99 % of control"}, {"measurement": "T/C", "setting": "[8]", "result": "96 % of control"}]}, {"smiles": "[O-][n+]1nc(Cl)nc2ccccc21", "values": [{"measurement": "T/C", "setting": "dose: 10.0 mg/kg/injection, schedule: Q01DX009 (ip), vehicle: Klucel (hydroxypropylcellulose) (HPC)", "result": "105 % of control"}, {"measurement": "T/C", "setting": "dose: 20.0 mg/kg/injection, schedule: Q01DX009 (ip), vehicle: Klucel (hydroxypropylcellulose) (HPC)", "result": "107 % of control"}]}, {"smiles": "O=C(/C=C/c1cccc([N+](=O)[O-])c1)c1ccccc1", "values": [{"measurement": "T/C", "setting": "dose: 50.0 mg/kg/injection, schedule: Q01DX009 (ip), vehicle: saline with Tween-80", "result": "99 % of control"}, {"measurement": "T/C", "setting": "dose: 100.0 mg/kg/injection, schedule: Q01DX009 (ip), vehicle: saline with Tween-80", "result": "92 % of control"}, {"measurement": "T/C", "setting": "dose: 200.0 mg/kg/injection, schedule: Q01DX009 (ip), vehicle: saline with Tween-80", "result": "92 % of control"}, {"measurement": "T/C", "setting": "dose: 400.0 mg/kg/injection, schedule: Q01DX009 (ip), vehicle: saline with Tween-80", "result": "100 % of control"}]}, {"smiles": "O=C(O)c1n[nH]c2ccccc2c1=O", "values": [{"measurement": "T/C", "setting": "dose: 1.56 mg/kg/injection, schedule: Q01DX009 (ip), vehicle: other", "result": "101 % of control"}, {"measurement": "T/C", "setting": "dose: 3.13 mg/kg/injection, schedule: Q01DX009 (ip), vehicle: other", "result": "105 % of control"}, {"measurement": "T/C", "setting": "dose: 6.25 mg/kg/injection, schedule: Q01DX009 (ip), vehicle: other", "result": "97 % of control"}, {"measurement": "T/C", "setting": "dose: 12.5 mg/kg/injection, schedule: Q01DX009 (ip), vehicle: other", "result": "109 % of control"}, {"measurement": "T/C", "setting": "dose: 25.0 mg/kg/injection, schedule: Q01DX009 (ip), vehicle: other", "result": "110 % of control and 90 % of control"}]}, {"smiles": "CN1CCC/C1=C\\C(=O)c1ccco1", "values": [{"measurement": "T/C", "setting": "dose: 15.0 mg/kg/injection, schedule: Q01DX005 (ip), vehicle: Klucel (hydroxypropylcellulose) (HPC)", "result": "100 % of control"}, {"measurement": "T/C", "setting": "dose: 30.0 mg/kg/injection, schedule: Q01DX005 (ip), vehicle: Klucel (hydroxypropylcellulose) (HPC)", "result": "103 % of control"}, {"measurement": "T/C", "setting": "[3]", "result": "109 % of control and 89 % of control"}]}, {"smiles": "FC(F)(F)COP(=S)(OCC(F)(F)F)OCC(F)(F)F", "values": [{"measurement": "T/C", "setting": "dose: 50.0 mg/kg/injection, schedule: Q01DX005 (ip), vehicle: saline with Tween-80", "result": "107 % of control"}, {"measurement": "T/C", "setting": "dose: 100.0 mg/kg/injection, schedule: Q01DX005 (ip), vehicle: saline with Tween-80", "result": "108 % of control"}, {"measurement": "T/C", "setting": "dose: 200.0 mg/kg/injection, schedule: Q01DX005 (ip), vehicle: saline with Tween-80", "result": "110 % of control"}]}, {"smiles": "O=C(O)c1ccc(=O)[nH]c1", "values": [{"measurement": "T/C", "setting": "dose: 100.0 mg/kg/injection, schedule: Q01DX009 (ip), vehicle: saline", "result": "101 % of control and 107 % of control"}, {"measurement": "T/C", "setting": "dose: 200.0 mg/kg/injection, schedule: Q01DX009 (ip), vehicle: saline", "result": "110 % of control and 118 % of control"}, {"measurement": "T/C", "setting": "dose: 400.0 mg/kg/injection, schedule: Q01DX009 (ip), vehicle: saline", "result": "100 % of control and 109 % of control"}, {"measurement": "T/C", "setting": "dose: 600.0 mg/kg/injection, schedule: Q01DX009 (ip), vehicle: saline", "result": "104 % of control and 106 % of control"}]}, {"smiles": "O=NNc1ccc(I)cn1", "values": [{"measurement": "T/C", "setting": "dose: 6.25 mg/kg/injection, schedule: Q01DX009 (ip), vehicle: water", "result": "170 % of control"}, {"measurement": "T/C", "setting": "dose: 12.5 mg/kg/injection, schedule: Q01DX009 (ip), vehicle: water", "result": "173 % of control and 190 % of control"}]}]}
